The values that follow come from patent US8623392B2, “Allergen inactivating agent” (priority 2007, dated 2014).

“Also recorded” adds a separate entry of the source.

Test [1] has as its target T1, freeze-dried Der fII (Dermatophagoides farinae, UniProt Q00855).
T1 sequence (Q00855 18-146): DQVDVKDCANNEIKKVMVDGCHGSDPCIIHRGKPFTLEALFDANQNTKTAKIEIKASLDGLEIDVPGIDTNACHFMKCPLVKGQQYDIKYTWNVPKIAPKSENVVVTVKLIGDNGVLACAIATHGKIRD
The test is described as follows: ELISA of freeze-dried Der fII after exposure to chlorine dioxide gas in 100 L-Tedlar bag. In kind it is biochemical, mite. The conditions noted are these: 24 hours. As to the method: The purified Der fII which had been freeze-dried was reacted with chlorine dioxide gas having a concentration of 0.1 ppm for 24 hours, and measurement was made using ELISA. As a result, 0.1 ppm of chlorine dioxide gas reduced the antigenicity of Der fII, as compared with the case of air as a control. […] The details will be described below.
In order to examine effect of the chlorine dioxide gas on the freeze-dried Der fII, 10 μl of the purified Der fII adjusted with PBS to the concentration of 10 μg/ml was placed in a 0.2-mL tube, frozen at −30° C., and freeze-dried overnight using a suction desiccator.
The humidity was controlled by a saturated salt method. Inside a Futon bag, a Tupperware containing salt or water therein was placed so as to obtain a target humidity, and next day, inside the bag, a 100 L-Tedlar bag containing the freeze-dried Der fII and a hygrometer was placed. A Tedlar bag into which chlorine dioxide was introduced was light-shielded with aluminum foil. […] The bag was left in an environment of 24° C., and the chlorine dioxide gas concentration inside bag was measured using a chlorine dioxide detector tube (No. 23M having a measurement range of 0.1 to 10 ppm, No. 23L having a measurement range of 0.025 to 1.2 ppm, GASTEC Corporation), and when the value was below 0.1 ppm, the generated chlorine dioxide gas was further added to make adjustment. […]
Background: In an ELISA, binding on a coated surface is turned into a signal by an enzyme label.

The target of test [2] is T2, freeze-dried Cry j1 (Cryptomeria japonica, UniProt P18632).
T2 construct: purchased Hayashibara Biochemical Labs., Inc
The experiment in a line: ELISA of freeze-dried Cry j1 after exposure to chlorine dioxide gas in 100 L-Tedlar bag. In kind it is biochemical, Japanese cedar. The conditions noted are these: 24 hours. The procedure:
The purified Cry j1 which had been freeze-dried was reacted with chlorine dioxide gas having an average concentration of 0.08 ppm for 24 hours, and measurement was made using ELISA. As a result, 0.08 ppm of chlorine dioxide gas reduced the antigenicity of Cry j1, as compared with the case of air as a control. […] The details will be described below.
In order to examine effect of the chlorine dioxide gas on the freeze-dried Cry j1, […] of the purified Cry j1 adjusted with PBS to the concentration of 10 μg/ml was placed in a […], frozen at −30° C., and freeze-dried overnight using a suction desiccator.
The humidity was controlled using agar, and the generated chlorine dioxide solution was introduced using a syringe into a 100 L-Tedlar bag, so that the concentration therein becomes 0.1 ppm, and air inside the bag was agitated using a crisscross rotor wherein outer diameter of 60 mm×height of 17 mm. Likewise, a bag into which distilled water was introduced was used as a control. The bag was left in an environment of 24° C., and the chlorine dioxide gas concentration inside the bag was measured using a chlorine dioxide gas measuring instrument (Model 4330-SP, Interscan Corporation; measurement range 0 to 1,000 ppb), and when the value was below 0.1 ppm, the generated chlorine dioxide solution was further added to make adjustment. […]

T2 sequence (P18632 22-374): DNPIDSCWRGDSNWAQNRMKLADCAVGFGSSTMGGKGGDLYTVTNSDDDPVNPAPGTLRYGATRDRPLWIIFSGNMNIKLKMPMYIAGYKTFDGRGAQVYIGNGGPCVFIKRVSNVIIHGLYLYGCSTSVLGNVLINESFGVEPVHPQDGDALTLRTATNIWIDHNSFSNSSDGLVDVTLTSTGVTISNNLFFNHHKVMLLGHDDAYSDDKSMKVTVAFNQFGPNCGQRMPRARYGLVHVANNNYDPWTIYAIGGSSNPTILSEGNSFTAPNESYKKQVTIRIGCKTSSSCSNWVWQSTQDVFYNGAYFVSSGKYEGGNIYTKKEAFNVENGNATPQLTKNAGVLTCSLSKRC

With `[O][Cl+][O-]` [chlorine dioxide gas, chlorine dioxide], the “antigenicity of freeze-dried Der fII” value in test [1] (chlorine dioxide gas 0.1 ppm (0.09 ppm on average), 24° C., compared with air control) is listed as “remarkably reduced”. Further, the “antigenicity of freeze-dried Der fII at higher relative humidity” value in test [1] (chlorine dioxide gas 0.1 ppm, humidity increased) is “reduced to a larger degree; also recorded: further reduced”. Moreover, in test [2] (chlorine dioxide gas 0.1 ppm (average 0.08 ppm), humidity increased), the “antigenicity of freeze-dried Cry j1 at higher relative humidity” value is recorded as “further reduced; also recorded: reduced to a larger degree”. Further, the “antigenicity of freeze-dried Cry j1” value in test [2] (chlorine dioxide gas 0.1 ppm set, 0.08 ppm (80 ppb) on average, 24° C., compared with air control) is “remarkably reduced”.
